Laboratory results: patent publication US20260167622A1, “PAN-KRAS DEGRADING AGENT, AND PREPARATION METHOD THEREFOR AND USE THEREOF” (LEADINGTAC PHARMACEUTICAL (SHAOXING) CO., LTD., priority 2022, published 2026)

Tests used:
Type in all cases: cell-based
[1] = target: T1, KRAS G12V protein in SW900 cells (Homo sapiens, UniProt P01116, G12V); assay: KRAS degradation assay (Western Blot) in SW900 cells; details: 24 h
T1 construct: endogenous in cells; host or cells: SW900
Source text: (§1) Test Example 5: KRAS G12C, KRAS G12D, KRAS G12V, KRAS G13D, and KRAS WT (Expanded) Degradation Assays
(§2) The degradation effect of the compounds on KRAS was investigated on KRAS G12C mutant human non-small cell lung cancer cell NCI-H358, KRAS G12D mutant human metastatic pancreatic cancer cell AsPc-1, KRAS G12D mutant human lung cancer cell A427, KRAS G12V mutant human colorectal cancer cell SW620, KRAS G12V mutant human lung cancer cell SW900, KRAS G13D mutant human colorectal cancer epithelial cell DLD-1, and KRAS WT human gastric cancer cell MKN-1. The specific procedures were as follows: 0.95 mL of cells were seeded into each well of a 24-well cell culture plate to achieve a cell density of 5×10^5 cells/well; and the cell plate was incubated in an incubator at 37° C. with 5% CO2 overnight. Then 50 μL of the compound solution after dilution was added to each of the wells with the corresponding cells, so that the final concentration of the compound was in a range of 0.03-3000 nM. The final concentration of DMSO was 0.25%. After the compounds were added, the cell plate was incubated in an incubator at 37° C. with 5% CO2 for 24 h. The culture medium in the 24-well cell culture plate was then removed, and the plate was washed twice with 1×PBS (KeyGEN). 120 μL of RIPA (strong) lysis buffer (Beyotime) (supplemented with 1 mM phenylmethylsulfonyl fluoride, a protease inhibitor mixture (Beyotime), and a protease phosphatase inhibitor mixture (Beyotime)) was added to lyse adherent SW900 cells at the bottom of the cell culture plate. After the plate was left to stand on ice for 30 min, the protein lysate in each well was transferred to a 1.5 mL centrifuge tube and centrifuged at 15000 g for 20 min at 4° C. The cell lysate supernatants after centrifugation were cryopreserved in a refrigerator at −80° C. for later use.
(§3) After the samples of the cell lysate supernatants that had been prepared were thawed from the refrigerator at −80° C., the total protein concentrations of the cell lysates were determined using a BCA protein quantification kit (Tiangen). The total protein concentrations of the samples were then adjusted to 0.5 μg/μL with PBS and 5×SDS-PAGE protein loading buffer (Beyotime), and the samples were incubated in a water bath at 100° C. for 15 min. The samples were then incubated in an ice bath for 5 min and centrifuged at 14000 g for 1 min at 4° C., and the supernatants were mixed well as loading samples for the Western Blot assay. The samples were loaded into wells of a 10% precast gel (KeyGEN) with a loading volume of 10 μL (total protein: 5 μg), a sufficient Tris-MOPS-SDS running buffer (Adamas) was added, and then electrophoresis was performed at a constant voltage of 120 V for 55 min. After the electrophoresis, the proteins on the gel were transferred to PVDF membranes at a constant current of 250 mA for 55 min. After the membrane transfer, the PVDF membranes were incubated in 1× Quick Block blocking buffer (Beyotime)at room temperature for 30 min. After the blocking, the PVDF membranes were separately incubated at 4° C. overnight with the KRAS antibody (Abcam) diluted in a ratio of 1:1000 and the β-actin antibody (Abcam) diluted in a ratio of 1:2000 in 5% BSA as the diluent, and then washed with 1×TBST buffer (2.4 g of Tris, 8.8 g of NaCl, 1.5 mL of Tween 20, with pH adjusted to 7.4, with the volume brought to 1 L) 3 times for 10 min/time. The membranes were incubated with a secondary antibody (Abcam) diluted in 5% BSA at room temperature for 2 h, and then washed with 1×TBST buffer 3 times for 10 min/time. Finally, the membranes were incubated with Clarity Western ECL Substrate (BIO-RAD) for 5 min for luminescence and color development, and a ChemiScope 6200 Touch chemiluminescence imaging system (Clinx) was used for color development and protein mapping. Gray value analysis of the protein maps was performed using the chemiluminescence analysis software (Clinx). […]

[2] = target: T2, KRAS G12V protein in SW620 cells (Homo sapiens, UniProt P01116, G12V); assay: KRAS degradation assay (Western Blot) in SW620 cells; details: for DC50: 24 h; for Dmax: SW-620, 24 h
T2 construct: endogenous in cells; host or cells: SW620
T2 sequence (P01116 1-188 isoform P01116-2 G12V): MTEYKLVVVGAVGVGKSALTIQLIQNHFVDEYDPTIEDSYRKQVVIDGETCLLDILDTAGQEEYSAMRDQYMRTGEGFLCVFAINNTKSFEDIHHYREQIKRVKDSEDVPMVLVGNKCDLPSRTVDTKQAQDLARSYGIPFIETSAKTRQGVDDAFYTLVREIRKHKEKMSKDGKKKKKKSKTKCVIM
Source text: as §1, §2, §3

[3] = test system: KRAS G13D mutant human colorectal cancer epithelial cell DLD-1; assay: 3D cell proliferation inhibition assay, DLD-1; details: DLD-1, 168 h, 3D culture, 7 days, CTG
Source text: (§4) Test Example 6: 3D Cell Proliferation Inhibition Assay
(§5) The inhibitory effects of the compounds on 3D cell proliferation were investigated on KRAS G12C mutant human non-small cell lung cancer cell NCI-H358, KRAS G12D mutant human lung cancer cell A427, KRAS G12D mutant human gastric cancer cell AGS, KRAS G12D mutant human metastatic pancreatic cancer cell AsPc-1, KRAS G12V mutant human lung squamous carcinoma cell SW900, KRAS G12V mutant human colorectal cancer cell SW620, KRAS G13D mutant human colorectal cancer epithelial cell DLD-1, and KRAS WT human gastric cancer cell MKN1. The specific procedures were as follows:
(§6) 10 μL of each compound solution diluted in a gradient was added to corresponding wells of a 96-well low-adsorption microplate (PerkinElmer), so that the final concentrations of the test compounds in the reaction system were in a range of 10000-0.026 nM. The final concentration of DMSO was 0.2%. Then 90 µL of cells were correspondingly seeded into each well to achieve a cell density of 5×10^2 cells/well (the cell density of SW900 was 5×10^3 cells/well, and the cell density of MKN1 was 1×10^3 cells/well). In addition to test wells for the test compounds, both a DMSO control well and a medium control well were set, with the DMSO control well containing DMSO and cells and the medium well containing only a medium. After the sample loading, the 96-well low-adsorption microplate was incubated in an incubator at 37° C. with […] for 7 days. After 7 days, the microplate was taken out, and 100 μL of CTG reagent (Promega) was added to each well. The plate was incubated at room temperature for 60 m and read on a microplate reader EnVision by the chemiluminescence program. The inhibition rates of the compounds at each concentration were calculated using the formula for the percentage inhibition of cell proliferation: inhibition rate 00=(mean value of DMSO control group−single concentration reading value of compound)/(mean value of DMSO control group−mean value of medium control group)×100. Then non-linear curve fillings for logarithmic concentration-inhibition rate were performed by GraphPad Prism 8, and the IC50 values of the compounds were obtained (Table 6).

[4] = test system: KRAS G12C mutant human non-small cell lung cancer cell NCI-H358; assay: 3D cell proliferation inhibition assay, NCI-H358; details: NCI-H358, 168 h, 3D culture, 7 days, CTG
Source text: as §4, §5, §6

[5] = test system: KRAS G12V mutant human colorectal cancer cell SW620; assay: 3D cell proliferation inhibition assay, SW620; details: SW-620, 168 h, 3D culture, 7 days, CTG
Source text: as §4, §5, §6

[6] = test system: KRAS G12D mutant human metastatic pancreatic cancer cell AsPc-1; assay: 3D cell proliferation inhibition assay, AsPc-1; details: ASPC1, 168 h, 3D culture, 7 days, CTG
Source text: as §4, §5, §6

T1 sequence (P01116 1-188 isoform P01116-2 G12V): as above

| DC50 [1] | Dmax [1] | DC50 [2] | Dmax [2] | IC50 [3] | IC50 [4] | IC50 [5] | IC50 [6] | SMILES |
| --- | --- | --- | --- | --- | --- | --- | --- | --- |
|  |  | 4.25 nM | 99.1% | 57.5 nM | 24 nM | 15.4 nM | 60.8 nM | C#Cc1c(F)ccc2cc(O)cc(-c3ccc4c(N5CCC[C@@](C)(O)C5)nc(OC[C@H](C)CN5CCN(CC6CCC7(CC6)CCN(C(=O)c6ccc(OC)c(N8CCC(=O)NC8=O)c6)CC7)CC5)nc4c3F)c12 [Example 60, 1-(5-(9-((4-((R)-3-((7-(8-ethynyl-7-fluoro-3-hydroxynaphthalen-1-yl)-8-fluoro-4-((R)-3-hydroxy-3-methylpiperidin-1-yl)quinazolin-2-yl)oxy)-2-methylpropyl)piperazin-1-yl)methyl)-3-azaspiro[5.5]undecane-3-carbonyl)-2-methoxyphenyl)dihydropyrimidine-2,4(1H,3H)-dione] |
|  |  | 18.9 nM | 99.3% | 39.9 nM | 18.9 nM | 13.3 nM | 68.2 nM | C#Cc1c(F)ccc2cc(O)cc(-c3ccc4c(N5CCC[C@@](C)(O)C5)nc(OC[C@H](C)CN5CCN(CC6CCC7(CC6)CCN(C(=O)c6ccc(C)c(N8CCC(=O)NC8=O)c6)CC7)CC5)nc4c3F)c12 [Example 61, 1-(5-(9-((4-((R)-3-((7-(8-ethynyl-7-fluoro-3-hydroxynaphthalen-1-yl)-8-fluoro-4-((R)-3-hydroxy-3-methylpiperidin-1-yl)quinazolin-2-yl)oxy)-2-methylpropyl)piperazin-1-yl)methyl)-3-azaspiro[5.5]undecane-3-carbonyl)-2-methylphenyl)dihydropyrimidine-2,4(1H,3H)-dione] |
|  |  | 33.6 nM | 93.1% | 70.2 nM | 535 nM | 32.9 nM | 417 nM | C#Cc1c(F)ccc2cc(O)cc(-c3ncc4c(N5CCCC(F)(F)C5)nc(OC[C@H](C)CN5CCN(CC6CCC7(CC6)CCN(C(=O)c6ccc(OC)c(N8CCC(=O)NC8=O)c6)CC7)CC5)nc4c3F)c12 [Example 67, (R)-1-(5-(9-((4-(3-((4-(3,3-difluoropiperidin-1-yl)-7-(8-ethynyl-7-fluoro-3-hydroxynaphthalen-1-yl)-8-fluoropyrido[4,3-d]pyrimidin-2-yl)oxy)-2-methylpropyl)piperazin-1-yl)methyl)-3-azaspiro[5.5]undecane-3-carbonyl)-2-methoxyphenyl)dihydropyrimidine-2,4(1H,3H)-dione] |
|  |  |  |  |  |  |  | 523 nM | C#Cc1c(F)ccc2cc(O)cc(-c3ncc4c(N5CCCC(C)(N)C5)nc(OCC5(CN6CCN(CC7CCC8(CC7)CCN(C(=O)c7ccc(C)c(N9CCC(=O)NC9=O)c7)CC8)CC6)CC5)nc4c3F)c12 (stereo not shown) [Example 166, 1-(5-(9-((4-((1-(((4-(3-amino-3-methylpiperidin-1-yl)-7-(8-ethynyl-7-fluoro-3-hydroxynaphthalen-1-yl)-8-fluoropyrido[4,3-d]pyrimidin-2-yl)oxy)methyl)cyclopropyl)methyl)piperazin-1-yl)methyl)-3-azaspiro[5.5]undecane-3-carbonyl)-2-methylphenyl)dihydropyrimidine-2,4(1H,3H)-dione] |

The next lines start with the molecule.

| SMILES | DC50 [1] | Dmax [1] | DC50 [2] | Dmax [2] | IC50 [3] | IC50 [4] | IC50 [5] | IC50 [6] |
| --- | --- | --- | --- | --- | --- | --- | --- | --- |
| C#Cc1c(F)ccc2cc(O)cc(-c3ncc4c(N5CCC[C@@](C)(O)C5)nc(OCC5(CN6CCC(CN(C)CCC7CCN(C(=O)c8ccc(Cl)c(N9CCC(=O)NC9=O)c8)CC7)CC6)CC5)nc4c3F)c12 [Example 18, (R)-1-(2-chloro-5-(4-(2-(((1-((1-(((7-(8-ethynyl-7-fluoro-3-hydroxynaphthalen-1-yl)-8-fluoro-4-(3-hydroxy-3-methylpiperidin-1-yl)piperidino[4,3-d]pyrimidin-2-yl)oxy)methyl)cyclopropyl)methyl)piperidin-4-yl)methyl)(methyl)amino)ethyl)piperidine-1-carbonyl)phenyl)dihydropyrimidine-2,4(1H,3H)-dione] | 100 to 500 nM | 50 to 80% |  |  |  |  |  |  |
| C#Cc1c(F)ccc2cc(O)cc(-c3ncc4c(NC5CC5)nc(OCC5(CN6CCN(CC7CCC8(CC7)CCN(C(=O)c7ccc(OC)c(N9CCC(=O)NC9=O)c7)CC8)CC6)CC5)nc4c3F)c12 [Example 31, 1-(5-(9-((4-((1-(((4-(cyclopropylamino)-7-(8-ethynyl-7-fluoro-3-hydroxynaphthalen-1-yl)-8-fluoropyrido[4,3-d]pyrimidin-2-yl)oxy)methyl)cyclopropyl)methyl)piperazin-1-yl)methyl)-3-azaspiro[5.5]undecane-3-carbonyl)-2-methoxyphenyl)dihydropyrimidine-2,4(1H,3H)-dione] | 50 to 100 nM | 50 to 80% |  |  |  |  |  |  |
| C#Cc1c(F)ccc2cc(O)cc(-c3ncc4c(NC(C)(C)C)nc(OCC5(CN6CCN(CC7CCC8(CC7)CCN(C(=O)c7ccc(OC)c(N9CCC(=O)NC9=O)c7)CC8)CC6)CC5)nc4c3F)c12 [Example 32, 1-(5-(9-((4-((1-(((4-(tert-butylamino)-7-(8-ethynyl-7-fluoro-3-hydroxynaphthalen-1-yl)-8-fluoropyrido[4,3-d]pyrimidin-2-yl)oxy)methyl)cyclopropyl)methyl)piperazin-1-yl)methyl)-3-azaspiro[5.5]undecane-3-carbonyl)-2-methoxyphenyl)dihydropyrimidine-2,4(1H,3H)-dione] | ≤ 50 nM | 50 to 80% |  |  |  |  |  |  |
